The source of these data is patent publication US12721838B2 (Henry Ford Health System, priority 2020, dated 2026).

The target in one data set is T1, TRIB2 (Homo sapiens, UniProt Q92519).
T1 sequence (Q92519 1-343): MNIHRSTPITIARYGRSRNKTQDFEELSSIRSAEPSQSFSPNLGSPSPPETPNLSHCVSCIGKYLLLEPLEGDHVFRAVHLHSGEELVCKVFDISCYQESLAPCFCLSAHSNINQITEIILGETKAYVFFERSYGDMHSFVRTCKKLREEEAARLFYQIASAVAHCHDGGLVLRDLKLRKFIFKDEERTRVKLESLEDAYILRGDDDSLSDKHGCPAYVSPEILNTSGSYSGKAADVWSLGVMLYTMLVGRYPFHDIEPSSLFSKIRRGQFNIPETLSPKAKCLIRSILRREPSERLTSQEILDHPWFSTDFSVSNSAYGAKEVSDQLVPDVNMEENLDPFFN
The data set is described as follows: Western blot of TRIB2 protein levels in cancer cells. The class given is cell-based. On the set-up: Whole cell lysate proteins were analyzed by Western blot; endogenous in cells; host or cells: LNCaP-ENR (enzalutamide-resistant LNCaP) cells. Particulars: for TRIB2 protein levels: LNCaP-ENR cells, 24 hours. As for the experimental part: Enzalutamide-resistant prostate cancer (ERPC) cells (LNCaP-ENR cells) were plated and treated with 10 μM each of various compounds for 24 hours. Exemplary methods for developing and using LNCaP-ENR cells is disclosed in Monga, J., Subramani, D., Bharathan, A., and Ghosh, J. (2020) “Pharmacological and genetic targeting of 5-lipoxygenase interrupts c-Myc oncogenic signaling and kills enzalutamide-resistant prostate cancer cells via apoptosis.” Scientific Reports 10: 6649, the disclosure of which is incorporated herein by reference in its entirety. Whole cell lysate proteins were analyzed by Western blot. TRIB2 antibody was used to detect protein levels of TRIB2 and GAPDH was used as loading control. Monoclonal anti-Trib2 antibody was purchased from Santa Cruz Biotech, Santa Cruz, CA.
(§1) LNCaP-ENR cells were treated with varying doses (4 μM, 8 μM, or 12 μM) of DCV for 24 hours. Effects on TRIB2 protein levels and its downstream targets (e.g., pAkt, Bcl-xL, Survivin, and FOXO3) were analyzed by Western blot. GAPDH was used as loading control. Protein levels of TRIB2, pAKT (S473), Bcl-xL, and Survivin were reduced in cells treated with 12 μM of DCV compared to control-treated cells (FIG. 3A). Levels of FOXO3 protein were increased at 12 μM of DCV treatment compared to control treatment. This was expected, as FOXO3 level is known to be decreased by Trib2. These effects on cellular protein levels were DCV concentration-dependent, with the most pronounced effects observed at the highest concentration tested (12 μM).

The test system of data set [1] is LNCaP-ENR cells. Briefly: Soft-agar colony formation assay. The class given is cell-based, human. Particulars: LNCaP-ENR (ERPC) cells, three weeks; DCV at 8 μM. How it is done:
Effect of DCV on soft-agar colony formation was also analyzed. LNCaP-ENR cells (10,000 per well in 6-well plates) were plated in 0.3% soft-agar on top of a base layer of 0.6% agar. The cells were treated with DCV and incubated at 37° C. for three weeks in the CO2 incubator. Cells were given fresh media and drug every fourth day. At the end of the incubation period, colonies were stained with 0.025% crystal violet, and pictures of colonies were taken with a Nikon digital camera at ×200. Image processing was done using Q-Capture Pro-7 software. Exemplary methods of the foregoing technique can be found in Sarveswaran, Sivalokanathan et al. “Inhibition of 5-lipoxygenase downregulates stemness and kills prostate cancer stem cells by triggering apoptosis via activation of c-Jun N-terminal kinase.” Oncotarget vol. 10, 4 424-436. 11 Jan. 2019, the disclosure of which is incorporated herein by reference in its entirety.

A further data set deals with ERPC cells. Briefly: DNA degradation assay. Type of data set: cell-based, human. An excerpt: FIG. 17 depicts a graph showing the apoptotic effects of DCV as measured by DNA degradation assay.
In a further data set the test system is normal, non-cancer cells. Briefly: Effects on normal, non-cancer cells. The class given is cell-based. The following applies: same experimental conditions as ERPC cells.
Data set [2] relates to LNCaP-ENR cells. The data set is described as follows: MTS/PES cell viability assay, ERPC cells. The class given is cell-based, human. As for the experimental part:
Plates were incubated for 72 hours at 37° C. in a CO2 incubator. Cell viability was measured by MTS/PES cell titer assay (Promega Corp., Madison, WI).

For data set [3], the system named is pAkt, Bcl-xL, Survivin, and FOXO3. The data set is described as follows: Western blot of TRIB2 downstream targets in LNCaP-ENR cells. Type of data set: cell-based, human. Particulars: 12 μM, 24 hours. As for the experimental part: as §1
The subject of data set [4] is LNCaP-ENR cells. The data set is described as follows: Cell cycle distribution. The class given is cell-based, human. The following applies: ERPC cells; FIG. 16 at 8 μM.
For data set [5] the following is noted: in vivo; cited from earlier work.
The conditions of data set [6]: cited from earlier work.
For data set [7], the target named is T2, Trib2-Luciferase (Luc-Trib2) fusion (Homo sapiens, UniProt Q92519).
T2 sequence (Q92519 with tags, fused parts or gaps): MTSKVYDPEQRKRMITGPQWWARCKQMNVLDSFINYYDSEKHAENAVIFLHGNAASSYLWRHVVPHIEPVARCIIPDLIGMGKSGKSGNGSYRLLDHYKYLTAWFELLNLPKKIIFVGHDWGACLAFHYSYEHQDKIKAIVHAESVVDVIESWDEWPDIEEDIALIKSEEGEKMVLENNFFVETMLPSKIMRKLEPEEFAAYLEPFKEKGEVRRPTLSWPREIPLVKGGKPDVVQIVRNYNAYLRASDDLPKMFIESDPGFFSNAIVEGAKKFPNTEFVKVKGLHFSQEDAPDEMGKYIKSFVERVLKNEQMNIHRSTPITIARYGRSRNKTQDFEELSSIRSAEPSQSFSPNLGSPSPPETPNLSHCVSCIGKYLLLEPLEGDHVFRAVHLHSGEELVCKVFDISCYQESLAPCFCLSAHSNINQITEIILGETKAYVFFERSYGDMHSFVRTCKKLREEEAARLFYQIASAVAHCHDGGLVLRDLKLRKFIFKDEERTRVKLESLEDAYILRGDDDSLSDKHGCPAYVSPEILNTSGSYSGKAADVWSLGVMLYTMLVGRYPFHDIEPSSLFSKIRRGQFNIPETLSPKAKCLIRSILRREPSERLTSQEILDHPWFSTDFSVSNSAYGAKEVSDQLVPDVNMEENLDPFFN
The data set is described as follows: cell-based. Particulars: HFF.

Broadly, the inhibition is the change of the read-out against control, counted positive when it falls. Turning to `COC(=O)N[C@H](C(=O)N1CCC[C@H]1c1nc(-c2ccc(-c3ccc(-c4c[nH]c([C@@H]5CCCN5C(=O)[C@@H](NC(=O)OC)C(C)C)n4)cc3)cc2)c[nH]1)C(C)C` [Daclatasvir, 4,4′-bis[2-((2S)-1-{(2S)-2-[(methoxycarbonyl)amino]-3-methylbutanoyl}-2-pyrrolidinyl)-1H-imidazol-4-yl]-1,1′-biphenyl], the TRIB2 protein levels result was “downregulated” on TRIB2 (10 μM, Western blot) and “reduced” at TRIB2 (12 μM, vs control-treated cells). The Trib2 protein level entry on TRIB2 (range of aggressive cancer cell lines, including prostate, lung, and kidney) is recorded as “downregulates”. For the same compound, the soft-agar colony formation result with LNCaP-ENR cells [1] is “completely blocked”. The “degradation of chromatin DNA” value with ERPC cells was “triggers degradation of chromatin DNA to nucleosomal fragments”. In the data set with normal, non-cancer cells, the “effects on normal, non-cancer cells” value is given as “minimal effects”. Further, the Cell viability entry in the data set on LNCaP-ENR cells [2] (LNCaP-ENR cells, varying doses, 72 hours, MTS/PES) is listed as “effectively decreased”. In addition, in the data set with LNCaP-ENR cells [2] (target steady state plasma concentration of planned trial), the “effective concentration in the pre-clinical prostate cancer modeling” value stood at 4 µM. The “Levels of FOXO3 protein” value in [3] (vs control treatment) is “increased”. For the same compound, the “Protein levels of pAKT (S473), Bcl-xL, and Survivin” value in data set [3] (vs control-treated cells) is reported as “reduced”. In addition, the cell cycle progression entry in the data set with LNCaP-ENR cells [4] is “arresting them at G0/G1 phase”. The “maximum tolerated dose (MTD)” value in data set [5] is greater than 200 mg/kg/day. The “solubility in aqueous solvents” value in data set [6] was “freely soluble”. In addition, the activity at 10 µM in data set [7] (read-out: Luciferase activity (%)) came to 28%. The inhibition at 10 µM in data set [7] (read-out: inhibition of Trib2-luciferase activity) is greater than 70%.
